# In PubChem BioAssay (NCI):
#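 Briefly, cells in 96-well plates were exposed to five compound concentrations for 48 h, and endpoints were estimated by linear interpolation. TGI marks complete inhibition of growth.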
# What was measured:
# Assay in all cases: inhibition of tumour cell growth, NCI panel, 48 h
# UACC-62 melanoma = test system: UACC-62 melanoma
# MDA-MB-231 breast = test system: MDA-MB-231 breast
# IGROV1 ovarian = test system: IGROV1 ovarian
# MALME-3M melanoma = test system: MALME-3M melanoma
# SK-MEL-28 melanoma = test system: SK-MEL-28 melanoma
# SN12C renal = test system: SN12C renal
# OVCAR-5 ovarian = test system: OVCAR-5 ovarian
# HCT-15 colon = test system: HCT-15 colon
# MCF7 breast = test system: MCF7 breast
# RXF 393 renal = test system: RXF 393 renal
# SF-295 CNS = test system: SF-295 CNS
# LOX IMVI melanoma = test system: LOX IMVI melanoma
# TK-10 renal = test system: TK-10 renal
# SNB-75 CNS = test system: SNB-75 CNS
Structure (SMILES),TGI (UACC-62 melanoma) [µM],TGI (MDA-MB-231 breast) [µM],TGI (IGROV1 ovarian) [µM],TGI (MALME-3M melanoma) [µM],TGI (SK-MEL-28 melanoma) [µM],TGI (SN12C renal) [µM],TGI (OVCAR-5 ovarian) [µM],TGI (HCT-15 colon) [µM],TGI (MCF7 breast) [µM],TGI (RXF 393 renal) [µM],TGI (SF-295 CNS) [µM],TGI (LOX IMVI melanoma) [µM],TGI (TK-10 renal) [µM],TGI (SNB-75 CNS) [µM]
O=C(Nc1ccc(Cl)cc1)c1cc(S(=O)(=O)Nc2nc3ncccc3[nH]2)c(SSc2cc(Cl)c(C(=O)Nc3ccc(Cl)cc3)cc2S(=O)(=O)Nc2nc3ncccc3[nH]2)cc1Cl,> 100,> 100,> 100,> 100,> 100,> 100,> 100,> 100,> 100,> 100,> 100,> 100,> 100,> 100
CC1(N2CCOCC2)CC2C(=[N+]1[O-])CCC/C2=N/O (stereo unspecified),> 100,> 100,> 100,> 100,> 100,> 100,> 100,> 100,> 100,> 100,> 100,> 100,> 100,> 100
COC(=O)/C(=C(/C)c1ccco1)P(=O)(OC)OC,> 100,> 100,> 100,> 100,> 100,> 100,> 100,> 100,> 100,> 100,> 100,> 100,> 100,> 100
O=C1C(NS(=O)(=O)c2ccccc2)=C(n2ccnc2)C(=O)c2ccccc21,> 100,> 100,> 100,> 100,> 100,> 100,> 100,> 100,> 100,> 100,> 100,> 100,> 100,> 100
O=S(=O)(O)c1cc(O)c(N=NC2S(=O)(=O)OCCOS2(=O)=O)c2ccccc12,> 100,> 100,> 100,> 100,> 100,> 100,> 100,> 100,> 100,> 100,> 100,> 100,> 100,> 100
COc1cc2ncnc(Nc3cccc(Br)c3)c2cc1OC,17.5,21.5,29.6,32.2,> 44.9,> 52.4,25,22.7,> 52,53,14.3,10.2,13.5,29.3
CCOP(=O)(OCC)/C(C#N)=C/c1nc[nH]c1C,> 100,> 100,> 100,> 100,> 100,> 100,> 100,> 100,> 100,> 100,> 100,> 100,> 100,> 100
COc1nc2ncc([C@@H](OC(C)=O)[C@@H](COC(C)=O)OC(C)=O)nc2c(=O)n1C,> 100,> 100,> 100,> 100,> 100,> 100,> 100,> 100,> 100,> 100,> 100,> 100,> 100,> 100
COC(=O)[C@H](Cc1ccccc1)NC(=O)N(CCN(CCC#N)C(=O)N[C@H](C(=O)OC)C(C)C)c1ccccc1,> 100,> 100,> 100,> 100,> 100,> 100,> 100,> 100,> 100,> 100,> 100,> 100,> 100,> 100
